By inhibition is commonly meant the relative decrease from the control value, in per cent.

The structures appear in SMILES notation. Like-named read-outs stand apart in the source and are kept apart here.

Data set [1] addresses HIV-1 NefNL4-3 (Human immunodeficiency virus type 1 group M subtype B, UniProt P03406, A33V/T15A/T51N/V11I). As to the kind of experiment: Surface plasmon resonance binding to recombinant full-length Nef (NL4-3). The settings on record: for T, minutes (residence time): 2-step induced fit, T = 1/koff2; for RU30/RUNef (extent of binding): response units at 30 μM relative to Nef immobilized on the SPR chip. For orientation: SPR reads the build-up and loss of mass on a sensor chip optically.

The subject of data set [2] is HIV-1NL4-3. As to the kind of experiment: HIV-1 infectivity assay in TZM-bl reporter cell line (LTR-luciferase, 48 h). The class given is cell-based. As to conditions: for inhibition at 1 µM: Human immunodeficiency virus 1, TZM-bl. The method, boiled down: (§1)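 TZM-bl cells (HIV-1 LTR-luciferase) infected with HIV-1NL4-3 with compound at 1 μM; luciferase read 48 h later. Percent inhibition normalized to DMSO wild-type infection (0%) and Nef-defective HIV-1 infection (100% of Nef-dependent effect). Viability in uninfected TZM-bl cells by Cell Titer Blue.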

Data set [3] concerns TZM-bl cell line. The class given is cell-based. The settings on record: 1 μM. The method, boiled down: as §1
[4] abbreviates: Table 1, 1:1 Langmuir fit where the KD2 cell says '1 to 1 fitting', else 2-site fit.
[5] abbreviates: 48 h, Table 1, TZM-bl cells, 1 μM, 48 h, 100% = Nef-defective HIV-1, read-out: HIV-1 Infectivity % Inhibition Norm. to Δ-Nef @ 1 μM.
Where [6] appears, read: KD, M, Table 4, SPR fit 2-step induced fit, KD = koff/kon × koff2/(koff2 + kon2).
Where [7] appears, read: 1.0 μM, TZM-bl reporter cell line, Table 4, read-out: % Infectivity Inhibition.

Regarding `CO[C@H](C)C(=O)N1CCC(c2nn(-c3nc4ccccc4[nH]3)c(O)c2CCc2ccc(F)cc2)CC1` [Compound I-727, (2R)-1-{4-[1-(1H-1,3-benzodiazol-2-yl)-4-[2-(4-fluorophenyl)ethyl]-5-hydroxy-1H-pyrazol-3-yl]piperidin-1-yl}-2-methoxypropan-1-one], the “Nef NL4-3 Binding, SPR 1:1 or 2-site fitting KD1” value (“Nef NL4-3 Binding” below) in data set [1] (setting [4]) is given as “No Interaction”. In data set [2] (setting [5]), the inhibition at 1 µM was 8.7%. Further, in data set [3] (human), the “Percent Viability @ 1 μM (TZM-bl cells)” value came out at 95.1%.
Consider `O=C(OCc1ccccc1)N1CCC(Cc2nn(-c3nc4ccccc4[nH]3)c(O)c2CCc2ccc(F)cc2)CC1` [Compound I-764, benzyl4-{[1-(1H-1,3-benzodiazol-2-yl)-4-[2-(4-fluorophenyl)ethyl]-5-hydroxy-1H-pyrazol-3-yl]methyl}piperidine-1-carboxylate], for which, in data set [1] (setting [4]), the “Nef NL4-3 Binding” value is listed as “No Interaction”. Besides, the inhibition at 1 µM in data set [2] (setting [5]) came out at 47.4%. In data set [3] (human), the “Percent Viability @ 1 μM (TZM-bl cells)” value is 100.6%.
Consider `CC(C)(O)C(=O)N1CCC(CCc2c(-c3cccc(S(C)(=O)=O)c3)nn(-c3nc4ccccc4[nH]3)c2O)CC1` [Compound I-776, 1-(4-{2-[1-(1H-1,3-benzodiazol-2-yl)-5-hydroxy-3-(3-methanesulfonylphenyl)-1H-pyrazol-4-yl]ethyl}piperidin-1-yl)-2-hydroxy-2-methylpropan-1-one], for which the Kd in data set [1] was found to be 393 nM; in data set [1] (setting [6]), 1200 nM; in data set [1] (Nef NL4-3 Binding, SPR 2-state fitting KD, Table 1, 2-step induced-fit model), 1200 nM. The “T, minutes (residence time)” value in data set [1] (Table 4) is on record as 1.06E + 01 minutes. Also, the “RU30/RUNef (extent of binding)” value in data set [1] was found to be 5.14E- 03. In addition, the inhibition at 1 µM in data set [2] (setting [7]) and in data set [2] (setting [5]) was 19.3% throughout. The “% Cell Viability” value in data set [3] (human) is 97.1%. Further, the “Percent Viability @ 1 μM (TZM-bl cells)” value in data set [3] (human) was 97.1%.
Turning to `CC(C)(C)OC(=O)NC1(c2nn(-c3nc4ccccc4[nH]3)c(O)c2CCc2ccc(F)cc2)CCOCC1` [Compound I-213, tert-butyl N-{4-[1-(1H-l,3-benzodiazol-2-yl)-4-[2-(4-fluorophenyl)ethyl]-5-hydroxy-1H-pyrazol-3-yl]oxan-4-yl}carbamate], the Kd in data set [1] (Table 1, 1:1 Langmuir fit where the KD2 cell says '1 to 1 fitting', else 2-site fit, read-out: Nef NL4-3 Binding, SPR 1:1 or 2-site fitting KD1) was 1600 nM. In data set [2] (Table 1, TZM-bl cells, 1 μM, 48 h, 100% = Nef-defective HIV-1), the “HIV-1 Infectivity % Inhibition Norm. to Δ-Nef @ 1 μM” value is on record as −4.6%. Also, the “Percent Viability @ 1 μM (TZM-bl cells)” value in data set [3] (Table 1, uninfected TZM-bl cells, Cell Titer Blue) is reported as 97.6%.
In the case of `CC(C)(C)OC(=O)N1CCC(c2nn(-c3nc4ccncc4[nH]3)c(O)c2CCc2ccc(F)cc2)CC1` [Compound I-221, tert-butyl 4-{4-[2-(4-fluorophenyl)ethyl]-5-hydroxy-1-{3H-imidazo[4,5-c]pyridin-2-yl}-1H-pyrazol-3-yl}piperidine-1-carboxylate], the Kd in data set [1] came to 12800 nM. The inhibition at 1 µM in data set [2] (setting [5]) came to 10.6%. The “Percent Viability @ 1 μM (TZM-bl cells)” value in data set [3] (human) came out at 103.1%.
Regarding `Oc1c(CC2CCOCC2)c(-c2ccc(F)cc2)nn1-c1nc2cc(F)ccc2[nH]1` [Compound I-173, 1-(5-fluoro-1H-1,3-benzodiazol-2-yl)-3-(4-fluorophenyl)-4-[(oxan-4-yl)methyl]-1H-pyrazol-5-ol], the Kd in data set [1] (setting [6]) is 0.348 nM. Moreover, in data set [1] (Table 4), the “T, minutes (residence time)” value is 7.12E + 04 minutes. For the same molecule, the “RU30/RUNef (extent of binding)” value in data set [1] is 5.24E- 03. In data set [2] (setting [7]), the inhibition at 1 µM stood at 97.2%. In addition, the “% Cell Viability” value in data set [3] (human) was 85.7%.
For `CN1CCN(CC(=O)N2CCC(c3nn(-c4nc5ccccc5[nH]4)c(O)c3CCc3ccc(F)cc3)CC2)CC1` [Compound I-726, 1-{4-[1-(1H-1,3-benzodiazol-2-yl)-4-[2-(4-fluorophenyl)ethyl]-5-hydroxy-1H-pyrazol-3-yl]piperidin-1-yl}-2-(4-methylpiperazin-1-yl)ethan-1-one], the “Nef NL4-3 Binding” value in data set [1] (setting [4]) was “No Interaction”. The inhibition at 1 µM in data set [2] (setting [5]) is -4.6%. Also, the “Percent Viability @ 1 μM (TZM-bl cells)” value in data set [3] (human) was 102.4%.
Take `Oc1c(CC2CCNCC2)c(-c2ccc(C(F)(F)F)cc2)nn1-c1nc2ccccc2[nH]1` [Compound I-504, 1-(1H-1,3-benzodiazol-2-yl)-4-[(piperidin-4-yl)methyl]-3-[4-(trifluoromethyl)phenyl]-1H-pyrazol-5-ol]: the Kd in data set [1] was 10600 nM. For the same molecule, the inhibition at 1 µM in data set [2] (setting [5]) is -43.7%. Moreover, the “Percent Viability @ 1 μM (TZM-bl cells)” value in data set [3] (human) is given as 101.3%.

Source of the values: US20220380341A1, “INHIBITORS OF HIV-1 NEF FOR THE TREATMENT OF HIV DISEASE” (priority 2018, published 2022).
